Laboratory results reported in the METLIN SMRT retention time set (Domingo-Almenara et al. 2019).

Experiment: gradient 5% acetonitrile 3 min, to 50% in 2 min, to 85% in 15 min, held 3 min, 100 µL/min
Details: column: Zorbax Extend-C18 2.1 x 50 mm; eluents: water / acetonitrile, 0.1% formic acid
Procedure, shortened: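 Values are retention times taken from adduct peaks that software picked and an analyst inspected. The pure standards were run as mixtures of ~100 molecules on HPLC linked to a quadrupole time-of-flight mass spectrometer, in positive and negative ionization mode. A Zorbax Extend-C18 column (2.1 × 50 mm, 1.8 μm) was used at 100 μL/min with water and acetonitrile, each including 0.1% formic acid.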

Row | SMILES | RP-LC retention time [s]
1 | Cc1nc(-c2csc(S(=O)(=O)N3CCC(C(=O)NCc4ccc(F)cc4)CC3)c2)no1 | 981
2 | CCOC(=O)Cn1cccc1-c1nc(-c2ccncc2)no1 | 844
3 | CC(Oc1ccccc1)C(=O)N1CCN(C(=O)c2nnn3c2COC(c2ccc(Cl)cc2)C3)CC1 (stereo not drawn) | 972
4 | COC(=O)c1cc(OCC(=O)Nc2ccc(F)cc2)c2cc(F)ccc2n1 | 836
5 | Cc1ccc(-c2csc(NC(=O)c3c(-c4ccc(F)cc4)nc4n3CCS4(=O)=O)n2)cc1 | 1070
6 | O=c1ccn(-c2ccc(Cl)cc2)nc1-c1nc(-c2ccc3c(c2)OCO3)no1 | 913
7 | NS(=O)(=O)c1ccc(CCNCc2ccc(-c3cccc(Cl)c3)o2)cc1 | 675
8 | Cc1ccc(CC(=O)N(CCS(=O)(=O)N2CCNCC2)CC2CCCO2)cc1 (stereo not drawn) | 645
9 | COc1cc(OC)cc(-c2nc(-c3cccc(-c4ccnn4C)c3)no2)c1 | 1160
10 | COc1ccc(CNC(=O)CSc2ccc(N3CCCC(C(=O)NC4CC4)C3)nn2)cc1 (stereo not drawn) | 631
11 | Cn1nc(C(=O)N2CCCC2)c2c1CCN(C(=O)Nc1cc(F)ccc1F)C2 | 728
12 | COc1ccccc1-c1noc(CN2C(=O)COc3ccccc32)n1 | 880
13 | CCn1cc(-c2nc(CC(=O)Nc3cc(Cl)ccc3OC)cs2)c2cccnc21 | 1130
14 | O=c1ccc(-c2ccc3c(c2)OCO3)nn1CCc1nc(-c2ccccn2)no1 | 730
15 | O=C(c1cccc(Cl)c1)N1CCN(c2cc(-c3cccs3)[nH]n2)CC1 | 816
16 | O=C(CC1CCCCC1)N1CCN(c2nc(CN3CCCCC3)cs2)CC1 | 675
17 | Cc1ccc(CNC(=O)CCc2nc(N3CCCCC3)c3c(-c4ccc(F)cc4)noc3n2)o1 | 1030
18 | CSc1ccc(-c2nc3cnccn3c2Nc2cccc(C)c2C)cc1 | 1060
19 | CCS(=O)(=O)N1C[C@@H](COC)[C@H](c2ccncc2)C1 | 544
20 | CCOc1ccccc1NC(=O)Nc1cccc(-c2ccc(N3CCOCC3)nn2)c1 | 670
21 | CCCOC(=O)C1=C(C)NC2=C(C(=O)C(C(=O)OC)C(C)C2)C1c1ccccc1F (stereo not drawn) | 954
22 | O=C(NCCCc1ccccc1)C1CCCN(c2ccc(=O)n(-c3cccc(Cl)c3)n2)C1 (stereo not drawn) | 926

Row | SMILES | RP-LC retention time [s]
23 | CCOc1ccccc1N1CCN(S(=O)(=O)c2nn(C)cc2C(=O)NC2CCCC2)CC1 | 1030
24 | O=C(NCCc1csc(-c2cccs2)n1)C1CCN(C(=O)C2CCCCC2)CC1 | 817
25 | CCN1CCN(S(=O)(=O)c2cc(-c3nc(C(C)C)cs3)sc2C)CC1 | 744
26 | CCc1ccccc1NC(=O)Cn1cnc2nc(N3CCCC(C(=O)NC)C3)sc2c1=O (stereo not drawn) | 646
27 | O=C(c1ncccn1)N1C[C@@H](COCC2CC2)[C@H](c2ccncc2)C1 | 654
28 | O=C(c1ccco1)N1CCN(C(=O)c2nnn3c2COC(c2ccccc2)C3)CC1 (stereo not drawn) | 762
29 | Cc1cc(C)cc(Nc2nc(C)cc(=O)n2CC(=O)Nc2ccc3c(c2)OCCO3)c1 | 785
30 | Cc1ccsc1C(=O)N1C[C@H]2C[C@H](C1)[C@H]1CCCC(=O)N1C2 | 754
31 | Cc1ccc(-n2c(=O)c3c(cc(C)n3C)n(CC(=O)Nc3cccc(Cl)c3)c2=O)cc1 | 937
32 | COc1ccc2c(c1)C1(CCN(C(=O)CCc3ccccc3)C1)C(=O)N2C (stereo not drawn) | 850
33 | CCCn1cc(C(=O)Nc2cccc(F)c2)c(S(=O)(=O)N2CCSCC2)n1 | 1070
34 | CCCn1c(=O)c(C)nc2cc(-c3noc(CN4C(=O)COc5ccc(Cl)cc54)n3)ccc21 | 1060
35 | O=C(CCC1CCCN(S(=O)(=O)c2cccc(F)c2)C1)NC1CCCCC1 (stereo not drawn) | 936
36 | c1ccc(-c2nc(-c3cccc(-c4ccn[nH]4)c3)no2)nc1 | 739
37 | Cc1cc(N2CCN([C@@H]3CN[C@H](C(=O)N4CCSC4)C3)CC2)n(-c2ccccc2)n1 | 653
38 | CN(Cc1cccn1C)C(=O)NC1CCCC1 | 775
39 | COc1ccc(NC(=O)Cn2ccc3c(=O)n(C)c(=O)n(C)c32)c(OC)c1 | 665
40 | CCCc1nc(NCc2cc(OC)ccc2OC)ncc1C(=O)O | 863
41 | COc1ccccc1C(=O)N1CCCC1c1c(C)noc1C (stereo not drawn) | 693
42 | Cc1cc(=O)n(CC(=O)N2CCc3ccccc32)c(N2CCOCC2)n1 | 667
43 | COc1cc2ncc(C#N)c(N3CCC(C(=O)Nc4cccc(Cl)c4)CC3)c2cc1OC | 816
